In patent US12325697B2 (Nimbus Clio, Inc., priority 2021, dated 2025):

Tests used:
[1] = target: Recombinant human c-Cbl (aa 47-435) (Homo sapiens (Human), UniProt P22681); test: c-Cbl Biochemical Assay (TR-FRET)
Description: Recombinant human c-Cbl (aa 47-435) was expressed in E. coli, purified and biotinylated in vitro. The protein was diluted to 12 nM in freshly prepared assay buffer consisting of 50 mM HEPES, pH 7.0, 100 mM NaCl, 5 mM MgCl2, 0.01% Triton-X 100, 0.01% BSA and 1 mM DTT. Recombinant human Src (aa 254-536)-[…]-Zap-70 (aa 281-297) fusion protein was expressed in E. coli and purified. Protein was diluted in assay buffer to 5-20 nM and ATP was added to 1 mM. Recombinant human UBE2D2([…]) was expressed in E. coli, purified and ubiquitinated and Bodipy labelled in vitro. Protein was diluted to 200 nM in assay buffer without MgCl2 (or Cisbio PPI buffer). Streptavidin-Terbium was added to 2 nM and EDTA to 10 mM, to provide a binding assay mix. Compounds were dissolved in DMSO and diluted to prepare a ten-point half log dilution series. 100 nl of each compound concentration was dispensed in duplicate in a 384 well black assay plate using acoustic dispensing. Wells for maximum signal controls received 100 nl of DMSO only and wells for minimum controls received 100 nl of a reference inhibitor compound at a final assay concentration of […] to produce 100% inhibition. 5 μl of diluted c-cbl enzyme was added to all wells of the assay plate and incubated at RT for 30 min. The enzyme assay was initiated by addition of 5 μl of Src-Zap/ATP mix to all wells, and the plate incubated at RT for 60-90 min. The enzyme reaction was terminated and the binding reaction was initiated by adding 10 μl of binding assay mix to all wells and incubating the plate at RT for 60 min prior to assay read. Final assay conditions consisted of 6 nM c-cbl, 2.5-10 nM Src-Zap70, 0.5 mM ATP, 1% (v/v) DMSO (enzyme reaction) and 100 nM UBE2D2([…])-Ub-FL-BODIPY, 5 mM EDTA, 1 nM Streptavidin-Tb (binding reaction). The HTRF assay signal was measured at 520 nm on an Envision plate reader, with reference signal at 485 or 620 nm. Data was normalized using maximum and minimum assay controls: % Inhibition=100-(100*((maximum control)-unknown)/(maximum control-minimum control)). A 4-parameter dose-response equation was used to fit the normalized dose-response data and derive an IC50 for test compounds.

[2] = target: Recombinant human Cbl-b (aa 36-427) (Homo sapiens (Human), UniProt Q13191); test: Cbl-b Biochemical Assay (TR-FRET); settings: read-out: TR-FRET hCbl-b IC50
How it was run: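 Two-step TR-FRET: 6 nM biotinylated Cbl-b preincubated 30-60 min with compound, then 60 min at RT with 1-2.5 nM Src-Zap70 and 0.5 mM ATP in HEPES pH 7.0 buffer, 1% DMSO. Stopped with 5 mM EDTA plus 100 nM UBE2D2-Ub-FL-BODIPY and 1 nM streptavidin-Tb, 60 min; 520 nm signal; IC50 from 4-parameter fit.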

Sequence of Recombinant human c-Cbl (aa 47-435) (P22681 47-435): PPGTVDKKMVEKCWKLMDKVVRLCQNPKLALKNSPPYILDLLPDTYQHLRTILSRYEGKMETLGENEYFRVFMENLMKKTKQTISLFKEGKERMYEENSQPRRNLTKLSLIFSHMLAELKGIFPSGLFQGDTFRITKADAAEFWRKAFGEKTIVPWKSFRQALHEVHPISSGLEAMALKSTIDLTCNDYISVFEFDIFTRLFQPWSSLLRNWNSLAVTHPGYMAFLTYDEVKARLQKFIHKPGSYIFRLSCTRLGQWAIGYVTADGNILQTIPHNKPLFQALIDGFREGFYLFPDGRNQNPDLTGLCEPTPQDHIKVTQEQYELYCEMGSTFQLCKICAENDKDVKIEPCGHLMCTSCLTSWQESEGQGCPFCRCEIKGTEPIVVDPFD
Sequence of Recombinant human Cbl-b (aa 36-427) (Q13191 36-427): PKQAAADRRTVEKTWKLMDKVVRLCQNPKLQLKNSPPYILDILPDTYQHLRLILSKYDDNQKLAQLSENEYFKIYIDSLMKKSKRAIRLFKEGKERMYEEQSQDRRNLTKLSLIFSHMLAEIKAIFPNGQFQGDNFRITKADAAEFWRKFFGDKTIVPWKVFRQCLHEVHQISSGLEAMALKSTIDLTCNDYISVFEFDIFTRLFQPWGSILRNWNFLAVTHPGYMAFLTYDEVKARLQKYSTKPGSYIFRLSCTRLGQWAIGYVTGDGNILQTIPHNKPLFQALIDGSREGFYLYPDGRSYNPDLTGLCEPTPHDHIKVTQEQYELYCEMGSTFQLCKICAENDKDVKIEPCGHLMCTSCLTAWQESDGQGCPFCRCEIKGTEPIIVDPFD

| SMILES | IC50 [1] | IC50 [2] |
| --- | --- | --- |
| Cn1cnnc1-c1cc(C#N)ccc1-c1cc(C2CC2)nc(N2Cc3c(F)cc(CN[C@]4(C)COC[C@@H]4O)cc3C2=O)c1 (relative stereo) [AOH-1, rel-4-{2-Cyclopropyl-6-[4-fluoro-6-({[(3R,4R)-4-hydroxy-3-methyloxolan-3-yl]amino}methyl)-1-oxo-3H-isoindol-2-yl]pyridin-4-yl}-3-(4-methyl-1,2,4-triazol-3-yl)benzonitrile] | ≤ 200 nM | ≤ 200 nM |
| Cn1cnnc1-c1cc(C#N)ccc1-c1cc(C2CC2)nc(N2Cc3c(F)cc(CN4CC[C@@H]5OCC[C@@H]54)cc3C2=O)c1 (single isomer, unassigned) [ANG-1] | ≤ 200 nM | ≤ 200 nM |
| Cn1cnnc1-c1cc(C#N)ccc1-c1cc(C2CC2)nc(N2Cc3c(F)cc(CN4CC[C@H]5OCC[C@H]54)cc3C2=O)c1 (single isomer, unassigned) [ANH-1] | ≤ 200 nM | ≤ 200 nM |
| Cn1cnnc1-c1cc(C#N)ccc1-c1cc(C2CC2)nc(N2Cc3c(F)cc(CN4CC[C@H]5OCC[C@H]54)cc3C2=O)c1 (stereo in doubt) [ANF-11, 4-[2-Cyclopropyl-6-(4-fluoro-6-{hexahydrofuro[3,2-b]pyrrol-4-ylmethyl}-1-oxo-3H-isoindol-2-yl)pyridin-4-yl]-3-(4-methyl-1,2,4-triazol-3-yl)benzonitrile] | ≤ 200 nM | ≤ 200 nM |
| Cn1cnnc1-c1cc(C#N)ccc1-c1cc(C2CC2)nc(N2Cc3ccc(CNC4CCOC4)cc3C2=O)c1 (stereo in doubt) [ANP-2, 4-[2-Cyclopropyl-6-(1-oxo-6-{[(3S)-oxolan-3-ylamino]methyl}-3H-isoindol-2-yl)pyridin-4-yl]-3-(4-methyl-1,2,4-triazol-3-yl)benzonitrile] | ≤ 200 nM | ≤ 200 nM |
| Cn1cnnc1-c1cc(C#N)ccc1-c1cc(C2CC2)nc(N2Cc3c(F)cc(CN[C@]4(C)COC[C@@H]4O)cc3C2=O)c1 (stereo in doubt) [AOF-9, 4-[2-Cyclopropyl-6-(4-fluoro-6-{[(4-hydroxy-3-methyloxolan-3-yl)amino]methyl}-1-oxo-3H-isoindol-2-yl)pyridin-4-yl]-3-(4-methyl-1,2,4-triazol-3-yl)benzonitrile] | < 200 nM | < 200 nM |
| Cn1cnnc1-c1cc(C#N)ccc1-c1cc(C2CC2)nc(N2Cc3c(F)cc(CN[C@@]4(C)COC[C@H]4O)cc3C2=O)c1 (stereo in doubt) [AOG-1, 4-[2-Cyclopropyl-6-(4-fluoro-6-{[(4-hydroxy-3-methyloxolan-3-yl)amino]methyl}-1-oxo-3H-isoindol-2-yl)pyridin-4-yl]-3-(4-methyl-1,2,4-triazol-3-yl)benzonitrile] | ≤ 200 nM | ≤ 200 nM |
| Cn1cnnc1-c1cc(C#N)ccc1-c1cc(C2CC2)nc(N2Cc3ccc([C@H]4COC[C@@H](C5CCC5)N4)cc3C2=O)c1 (stereo in doubt) [AOP-4, rac-4-(2-{6-[(3R,5S)-5-Cyclobutylmorpholin-3-yl]-1-oxo-3H-isoindol-2-yl}-6-cyclopropylpyridin-4-yl)-3-(4-methyl-1,2,4-triazol-3-yl)benzonitrile] | ≤ 200 nM | ≤ 200 nM |
| Cn1cnnc1-c1cc(C#N)ccc1-c1cc(C2CC2)nc(N2Cc3ccc([C@@H]4COC[C@H](C5CCC5)N4)cc3C2=O)c1 (stereo in doubt) [AOQ-1, rel-4-(2-{6-[(3R,5S)-5-Cyclobutylmorpholin-3-yl]-1-oxo-3H-isoindol-2-yl}-6-cyclopropylpyridin-4-yl)-3-(4-methyl-1,2,4-triazol-3-yl)benzonitrile] | ≤ 200 nM | ≤ 200 nM |
| Cn1cnnc1-c1cc(C#N)ccc1-c1cc(C2CC2)nc(N2Cc3ccc([C@H]4COC[C@@H](C5CCC5)N4)cc3C2=O)c1 (stereo in doubt) [AOR-1, rel-4-(2-{6-[(3R,5S)-5-Cyclobutylmorpholin-3-yl]-1-oxo-3H-isoindol-2-yl}-6-cyclopropylpyridin-4-yl)-3-(4-methyl-1,2,4-triazol-3-yl)benzonitrile] | ≤ 200 nM | ≤ 200 nM |
| Cn1cnnc1-c1cc(C#N)ccc1-c1cc(C2CC2)nc(N2Cc3c(F)cc(CN4CC[C@H]5COC[C@@H]54)cc3C2=O)c1 (stereo in doubt) [AOT-2, 4-(2-Cyclopropyl-6-(4-fluoro-6-((hexahydro-1H-furo[3,4-b]pyrrol-1-yl)methyl)-1-oxoisoindolin-2-yl)pyridin-4-yl)-3-(4-methyl-4H-1,2,4-triazol-3-yl)benzonitrile] | ≤ 200 nM | ≤ 200 nM |
| CCNc1cnc(N2Cc3c(cc(CO)cc3C(F)(F)F)C2=O)cc1-c1ccc(F)cc1-c1nncn1C [AHN-9, 2-(5-(Ethylamino)-4-(4-fluoro-2-(4-methyl-4H-1,2,4-triazol-3-yl)phenyl)pyridin-2-yl)-6-(hydroxymethyl)-4-(trifluoromethyl)isoindolin-1-one] | 10000 to 50000 nM | 10000 to 50000 nM |
| CN1CCC[C@@H]1COCc1cc2c(c(C(F)(F)F)c1)CN(c1cc(-c3ccc(F)cc3-c3nncn3C)cc(C3CC3)n1)C2=O [AHO-4, 2-{6-Cyclopropyl-4-[4-fluoro-2-(4-methyl-1,2,4-triazol-3-yl)phenyl]pyridin-2-yl}-6-({[(2R)-1-methylpyrrolidin-2-yl]methoxy}methyl)-4-(trifluoromethyl)-3H-isoindol-1-one] | ≤ 200 nM | ≤ 200 nM |
| Cn1cnnc1-c1cc(C#N)ccc1-c1cc(C2CC2)nc(N2Cc3c(cc(COCC4(O)CCC4)cc3C(F)(F)F)C2=O)c1 [AHP-1, 4-(2-Cyclopropyl-6-(6-(((1-hydroxycyclobutyl)methoxy)methyl)-1-oxo-4-(trifluoromethyl)isoindolin-2-yl)pyridin-4-yl)-3-(4-methyl-4H-1,2,4-triazol-3-yl)benzonitrile] | ≤ 200 nM | ≤ 200 nM |
| CCOc1cc(-c2ccc(F)cc2-c2nncn2C)cc(N2Cc3c(cc(COCCO)cc3C(F)(F)F)C2=O)n1 [AHQ-4, 2-(6-Ethoxy-4-(4-fluoro-2-(4-methyl-4H-1,2,4-triazol-3-yl)phenyl)pyridin-2-yl)-6-((2-hydroxyethoxy)methyl)-4-(trifluoromethyl)isoindolin-1-one] | ≤ 200 nM | ≤ 200 nM |
| CCOc1cc(-c2ccc(F)cc2-c2nncn2C)cc(N2Cc3ccc(CO)cc3C2=O)n1 [ANS-1] | 200 to 1000 nM |  |
| Cn1cnnc1-c1ccccc1-c1cccc(N2Cc3c(cc(CN[C@H]4CCC[C@@H]4O)cc3C(F)(F)F)C2=O)c1 [Example T-2, 6-((((1S,2S)-2-Hydroxycyclopentyl)amino)methyl)-2-(2′-(4-methyl-4H-1,2,4-triazol-3-yl)-[1,1′-biphenyl]-3-yl)-4-(trifluoromethyl)isoindolin-1-one] |  | ≤ 200 nM |
| Cn1cnnc1-c1ccccc1-c1cccc(N2Cc3c(cc(CN4CC[C@H](F)C4)cc3C(F)(F)F)C2=O)c1 [Example V-2, (S)-6-((3-Fluoropyrrolidin-1-yl)methyl)-2-(2′-(4-methyl-4H-1,2,4-triazol-3-yl)-[1,1′-biphenyl]-3-yl)-4-(trifluoromethyl)isoindolin-1-one] |  | ≤ 200 nM |
| Cn1cnnc1-c1ccccc1-c1cccc(N2Cc3c(cc(CN[C@@H]4CCC[C@H]4O)cc3C(F)(F)F)C2=O)c1 [Example W-2, 6-((((1R,2R)-2-Hydroxycyclopentyl)amino)methyl)-2-(2′-(4-methyl-4H-1,2,4-triazol-3-yl)-[1,1′-biphenyl]-3-yl)-4-(trifluoromethyl)isoindolin-1-one] |  | ≤ 200 nM |
| C[C@@H]1CN(Cc2cc3c(c(C(F)(F)F)c2)CN(c2cccc(-c4ccccc4-c4nncn4C)c2)C3=O)CCO1 [Example X-2, (R)-2-(2′-(4-Methyl-4H-1,2,4-triazol-3-yl)-[1,1′-biphenyl]-3-yl)-6-((2-methylmorpholino)methyl)-4-(trifluoromethyl)isoindolin-1-one] |  | ≤ 200 nM |
| Cn1cnnc1-c1ccccc1-c1cccc(N2Cc3c(cc(CN4CC[C@@H](F)C4)cc3C(F)(F)F)C2=O)c1 [Example Y-2, (R)-6-((3-Fluoropyrrolidin-1-yl)methyl)-2-(2′-(4-methyl-4H-1,2,4-triazol-3-yl)-[1,1′-biphenyl]-3-yl)-4-(trifluoromethyl)isoindolin-1-one] |  | 200 to 1000 nM |
